# Assay results from patent publication US10807985B2 (Blueprint Medicines Corporation, priority 2013, dated 2020).
# “Also recorded” adds a separate entry of the source.
# What was measured:
# [1] = biological target: KIT D816V kinase activity (KIT autophosphorylation at tyrosine 719) in HMC1.2 cells (Homo sapiens (Human), UniProt P10721, D816V/V560G); assay: HMC1.2 autophosphorylation assay (phospho-Y719 c-KIT AlphaLISA); assay type: cell-based; settings: HMC1.2 mast cell leukemia cell line (KIT V560G, D816V), 90 minutes compound; read-out: INH-KIT-PHOS-HMC1.2
# [2] = biological target: PDGFRA D842V (Homo sapiens (Human), UniProt P16234, D842V); assay: PDGFRA D842V assay at Km (Caliper electrophoretic mobility shift); settings: biochemical, 15 uM ATP (Km), 90 minutes at 25 C; read-out: INH PDFGRA D842V
# [3] = biological target: D816V KIT (Homo sapiens (Human), UniProt P10721, D816V); assay: KIT D816V assay at Km (Caliper electrophoretic mobility shift); settings: biochemical, 15 uM ATP (Km), 90 minutes at 25 C; read-out: INH KIT D816V
# [4] = Body weight changes in the tumor bearing mice (P815 xenograft)
# [5] = mouse, in vivo
# [6] = test system: P815 tumor cells; assay: P815 mastocytoma xenograft model, tumor growth; assay type: in vivo, mouse; settings: P815 xenograft in female BALB/c nude mice; 3, 10, 30, 100 mg/kg p.o. QD × 10
# Method: Compound 46 and Dasatinib were evaluated in a P815 mastocytoma xenograft model. P815 tumor cells (ATCC, Manassas, Va., cat # ATCC® TIB-64) were maintained in vitro as a suspension and monolayer culture in RPMI1640 medium supplemented with 10% fetal calf serum at 37° C. in an atmosphere of 5% CO2 in air. The tumor cells were sub-cultured twice weekly by trypsin-EDTA treatment. The cells growing in an exponential growth phase were harvested and counted for tumor inoculation.
# Tumor sizes were measured every other day in two dimensions using a caliper, and the volume was expressed in mm^3 using the formula: V=0.5 a×b^2 where a and b were the long and short diameters of the tumor, respectively. […] T-C was calculated with T as the median time (in days) required for the treatment group tumors to reach a predetermined size (e.g., 1000 mm^3), and C as the median time (in days) for the control group tumors to reach the same size. […]
# TGI was calculated for each group using the formula: TGI (%)=[1−(Ti−T0)/(Vi−V0)]×100; Ti is the average tumor volume of a treatment group on a given day, T0 is the average tumor volume of the treatment group on the day of treatment start, Vi is the average tumor volume of the vehicle control group on the same day with Ti, and V0 is the average tumor volume of the vehicle group on the day of treatment start. Tumor weight was measured at the endpoint. […]
# Sequence of D816V KIT (P10721 26-976 D816V): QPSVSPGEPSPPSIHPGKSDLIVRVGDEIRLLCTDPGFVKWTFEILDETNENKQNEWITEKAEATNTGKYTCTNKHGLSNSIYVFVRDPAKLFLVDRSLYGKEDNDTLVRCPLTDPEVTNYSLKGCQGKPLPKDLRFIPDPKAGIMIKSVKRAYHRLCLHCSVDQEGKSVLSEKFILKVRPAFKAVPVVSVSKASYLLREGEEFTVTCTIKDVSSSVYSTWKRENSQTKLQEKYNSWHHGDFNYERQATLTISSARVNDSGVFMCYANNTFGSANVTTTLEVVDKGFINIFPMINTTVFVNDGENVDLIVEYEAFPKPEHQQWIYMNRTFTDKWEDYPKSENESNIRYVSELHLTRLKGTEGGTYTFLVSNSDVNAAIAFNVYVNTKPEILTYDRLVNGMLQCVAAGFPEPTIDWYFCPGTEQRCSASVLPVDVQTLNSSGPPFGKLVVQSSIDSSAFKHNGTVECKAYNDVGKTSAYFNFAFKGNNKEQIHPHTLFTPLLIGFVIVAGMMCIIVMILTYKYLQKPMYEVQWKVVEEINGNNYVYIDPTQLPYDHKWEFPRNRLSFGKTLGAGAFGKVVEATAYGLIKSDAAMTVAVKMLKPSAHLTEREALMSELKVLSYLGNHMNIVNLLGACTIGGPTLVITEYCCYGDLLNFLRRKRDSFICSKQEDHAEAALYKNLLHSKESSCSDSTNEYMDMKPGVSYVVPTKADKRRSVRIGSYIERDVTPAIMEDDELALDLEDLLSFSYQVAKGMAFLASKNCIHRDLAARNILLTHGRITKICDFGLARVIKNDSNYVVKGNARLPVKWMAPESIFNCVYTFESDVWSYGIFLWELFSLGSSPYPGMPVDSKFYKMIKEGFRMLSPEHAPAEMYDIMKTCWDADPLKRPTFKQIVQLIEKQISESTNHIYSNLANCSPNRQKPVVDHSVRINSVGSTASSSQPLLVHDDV
# Sequence of PDGFRA D842V (P16234 24-1089 D842V): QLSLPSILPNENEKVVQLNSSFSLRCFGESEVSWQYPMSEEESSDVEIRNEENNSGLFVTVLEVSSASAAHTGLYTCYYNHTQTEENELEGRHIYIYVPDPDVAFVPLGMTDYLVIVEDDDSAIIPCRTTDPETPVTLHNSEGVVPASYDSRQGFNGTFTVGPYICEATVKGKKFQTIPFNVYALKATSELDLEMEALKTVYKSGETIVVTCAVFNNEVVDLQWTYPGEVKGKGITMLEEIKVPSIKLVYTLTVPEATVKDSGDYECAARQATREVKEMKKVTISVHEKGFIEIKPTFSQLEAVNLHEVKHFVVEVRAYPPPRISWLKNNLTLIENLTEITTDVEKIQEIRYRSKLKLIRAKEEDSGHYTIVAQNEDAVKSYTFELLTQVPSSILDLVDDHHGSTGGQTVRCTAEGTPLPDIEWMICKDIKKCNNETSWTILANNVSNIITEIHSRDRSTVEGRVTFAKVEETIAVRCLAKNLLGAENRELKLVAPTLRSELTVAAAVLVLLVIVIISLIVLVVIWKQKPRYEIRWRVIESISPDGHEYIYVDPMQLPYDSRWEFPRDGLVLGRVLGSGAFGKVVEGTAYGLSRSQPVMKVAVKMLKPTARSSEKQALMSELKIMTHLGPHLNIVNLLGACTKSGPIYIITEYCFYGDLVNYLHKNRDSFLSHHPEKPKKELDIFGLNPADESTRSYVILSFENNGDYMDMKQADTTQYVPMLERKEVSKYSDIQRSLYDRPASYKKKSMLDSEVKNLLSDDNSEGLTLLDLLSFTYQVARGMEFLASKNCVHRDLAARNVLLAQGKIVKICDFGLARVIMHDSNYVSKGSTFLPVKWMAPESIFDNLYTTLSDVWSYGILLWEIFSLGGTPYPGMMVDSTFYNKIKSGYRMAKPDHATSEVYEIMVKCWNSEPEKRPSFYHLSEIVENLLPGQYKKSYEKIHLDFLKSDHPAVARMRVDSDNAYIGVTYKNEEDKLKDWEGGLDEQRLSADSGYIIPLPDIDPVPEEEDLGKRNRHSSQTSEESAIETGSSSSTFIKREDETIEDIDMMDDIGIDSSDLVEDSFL
# Sequence of KIT D816V kinase activity (KIT autophosphorylation at tyrosine 719) in HMC1.2 cells (P10721 26-976 V560G/D816V): as the sequence (P10721 26-976 D816V) above, with V535G counted along it
IC50 [1],IC50 [2],IC50 [3],Structure (SMILES),"body weight change ([4]; Compound 46 3-100 mg/kg p.o. QD × 10, even at the higher doses)",tolerability [5],tumor growth inhibition [6],body weight loss ([4]; Dasatinib 25 mg/kg p.o. BID × 10)
< 50 nM,< 1 nM,< 1 nM,Cn1cc(-c2cc3c(N4CCN(c5ncc([C@](C)(O)c6ccc(F)cc6)cn5)CC4)ncnn3c2)cn1 [Compound 45],,,,
< 50 nM,1.01 to 10 nM,< 1 nM,C[C@](O)(c1cnc(N2CCN(c3ncnn4cc(-c5cn[nH]c5)cc34)CC2)nc1)c1ccc(F)cc1F [Compound 57],,,,
50 to 100 nM,1.01 to 10 nM,1.01 to 10 nM,C[C@](N)(c1ccc(F)cc1)c1cnc(N2CCN(c3ncnn4cc(-c5ccc(F)cc5)cc34)CC2)nc1 [Compound 62],,,,
100 to 1000 nM,1.01 to 10 nM,1.01 to 10 nM,C[C@](O)(c1ccc(F)cc1)c1cnc(N2CCN(c3ncnn4cc(-c5ccc(F)cc5)cc34)CC2)nc1 [Compound 65],,,,
< 50 nM,1.01 to 10 nM,1.01 to 10 nM,CO[C@](C)(c1ccc(F)cc1)c1cnc(N2CCN(c3ncnn4cc(-c5cnn(C)c5)cc34)CC2)nc1 [Compound 68],,,,
50 to 100 nM,1.01 to 10 nM,1.01 to 10 nM,C[C@@H]1CN(c2ncnn3cc(-c4cnn(C)c4)cc23)CCN1c1ncc([C@](C)(O)c2ccc(F)cc2)cn1 [Compound 76],,,,
< 50 nM,< 1 nM,1.01 to 10 nM,C[C@@H]1CN(c2ncnn3cc(-c4cnn(C)c4)cc23)CCN1c1ncc([C@@](C)(O)c2ccc(F)cc2)cn1 [Compound 77],,,,
< 50 nM,< 1 nM,< 1 nM,Cn1cc(-c2cc3c(N4CCN(c5ncc([C@@](C)(CO)c6ccc(F)cc6)cn5)CC4)ncnn3c2)cn1 [Compound 78],,,,
< 50 nM,< 1 nM,1.01 to 10 nM,Cn1cc(-c2cc3c(N4CCN(c5ncc([C@](C)(CO)c6ccc(F)cc6)cn5)CC4)ncnn3c2)cn1 [Compound 79],,,,
< 50 nM,1.01 to 10 nM,1.01 to 10 nM,Cn1cc(-c2cc3c(N4CCN(c5ncc([C@](C)(O)c6ccc(Cl)cc6)cn5)CC4)ncnn3c2)cn1 [Compound 84],,,,
< 50 nM,< 1 nM,< 1 nM,Cn1cc(-c2cc3c(N4CCN(c5ncc([C@](C)(N)c6ccc(F)cc6F)cn5)CC4)ncnn3c2)cn1 [Compound 86],,,,
100 to 1000 nM,1.01 to 10 nM,1.01 to 10 nM,Cc1ncc(-c2cc3c(N4CCN(c5ncc([C@](C)(O)c6ccc(F)cc6)cn5)CC4)ncnn3c2)s1 [Compound 87],,,,
< 50 nM,< 1 nM,< 1 nM,Cn1cc(-c2cc3c(N4CCN(c5ncc([C@@](C)(O)c6ccc(F)cc6F)cn5)CC4)ncnn3c2)cn1 [Compound 94],,,,
< 50 nM,< 1 nM,< 1 nM,Cn1cc(-c2cc3c(N4CCN(c5ncc([C@](O)(CF)c6ccc(F)cc6)cn5)CC4)ncnn3c2)cn1 [Compound 96],,,,
< 50 nM,1.01 to 10 nM,1.01 to 10 nM,Cn1cc(-c2cc3c(N4CCN(c5ncc(Sc6ccccc6F)cn5)[C@H](CO)C4)ncnn3c2)cn1 [Compound 97],,,,
100 to 1000 nM,< 1 nM,< 1 nM,CN(C)C(=O)c1ccc(-c2cc3c(N4CCN(c5ncc(Cc6ccccc6)cn5)CC4)ncnn3c2)cc1 [Compound 98],,,,
< 50 nM,< 1 nM,< 1 nM,O[C@@](c1ccc(F)cc1)(c1cnc(N2CCN(c3ncnn4cc(-c5cn[nH]c5)cc34)CC2)nc1)C(F)F [Compound 100],,,,
50 to 100 nM,1.01 to 10 nM,1.01 to 10 nM,COc1ccc(-c2cc3c(N4CCN(c5ncc([C@@](C)(O)c6ccc(F)cc6)cn5)CC4)ncnn3c2)cc1 [Compound 102],,,,
< 50 nM,< 1 nM,< 1 nM,Cn1cc(-c2cc3c(N4CCN(c5ncc([C@@](N)(c6ccc(F)cc6)C(F)F)cn5)CC4)ncnn3c2)cn1 [Compound 111],,,,
< 50 nM,< 1 nM,1.01 to 10 nM,Cn1cc(-c2cc3c(N4CCN(c5ncc([C@](C)(O)c6c(F)cc(F)cc6F)cn5)CC4)ncnn3c2)cn1 [Compound 115],,,,
< 50 nM,< 1 nM,< 1 nM,Cn1cc(-c2cc3c(N4CCN(c5ncc([C@@](C)(O)c6c(F)cc(F)cc6F)cn5)CC4)ncnn3c2)cn1 [Compound 116],,,,
< 50 nM,1.01 to 10 nM,< 1 nM,Cn1cc(-c2cc3c(N4CCN(c5ncc([C@@](O)(c6ccc(F)cc6)C(F)F)cn5)CC4)ncnn3c2)cn1 [Compound 117],,,,
< 50 nM,1.01 to 10 nM,1.01 to 10 nM,Cn1cc(-c2cc3c(N4CCN(c5ncc([C@@](N)(c6ccc(F)cc6)C(F)(F)F)cn5)CC4)ncnn3c2)cn1 [Compound 122],,,,
50 to 100 nM,1.01 to 10 nM,1.01 to 10 nM,"Fc1ccccc1Sc1cnc(N2CCN(c3ncnn4cc(-c5cnn(C[C@@H]6CNCCO6)c5)cc34)CC2)nc1 [Compound 123, (S)-2-((4-(4-(4-(5-(2-fluorophenylthio)pyrimidin-2-yl)piperazin-1-yl)pyrrolo[1,2-f][1,2,4]triazin-6-yl)-1H-pyrazol-1-yl)methyl)morpholine]",,,,
,,,"Cc1nc(Nc2ncc(C(=O)Nc3c(C)cccc3Cl)s2)cc(N2CCN(CCO)CC2)n1 [Dasatinib, reference compound]",,,,more than 5%

Structure (SMILES),IC50 [1],IC50 [2],IC50 [3],"body weight change ([4]; Compound 46 3-100 mg/kg p.o. QD × 10, even at the higher doses)",tolerability [5],tumor growth inhibition [6],body weight loss ([4]; Dasatinib 25 mg/kg p.o. BID × 10)
Cn1cc(-c2cc3c(N4CCN(c5ncc([C@@](C)(O)c6ccc(F)cc6)cn5)CC4)ncnn3c2)cn1 [Compound 46],< 50 nM,< 1 nM,< 1 nM,less than 5%,well tolerated,effective in inhibiting tumor growth; also recorded: observable antitumor activity,
